Results reported in patent US4007201A, “Novel pyrazole derivatives” (Kyorin Pharmaceutical Co. Ltd., priority 1975, dated 1977).

How the values were obtained:
Format in all cases: in vivo, male Sprague Dawley rats
[1] = tested on: blood glucose level in fasted and glucose-loaded rats; experiment: Duration of the action of the compound 4 (fasted, glucose-loaded rats); settings: for Blood glucose before administration: 50 mg/kg oral group, before administration (baseline); for Blood glucose before administration / Blood glucose 2 hours / Blood glucose 4 hours / Blood glucose 6 hours: ± SE
Procedure: (§1) These new compounds of the present invention are very useful as anti-diabetic agents, which is supported from the following pharmacological studies. The animals used for the pharmacological studies were male Sprague Dawley rats exept otherwise noted. 1. Hypoglycemic activity in non-diabetic rats (screening test)
(§2) The rats were fasted for 16 - 18 hours prior to the experiment and those weighing 140 - 160g were used. Glucose solution (100 mg/0.5ml/150g body weight) was subcutaneously injected on the fasted rats. Each of the present compounds was suspended in 1% carboxymethyl cellulose (CMC), and about 0.5 ml of the suspension (corresponding to 100 mg/kg of the compound per body weight) was orally administered. Blood samples were taken from the tail vein of the rats at 2 and 5 hours after the administration, and the blood glucose level in each sample (0.1 ml) was determined by the micro method of Momose as described in SOGO-RINSHO 11, 120 (1962).
In order to reconfirm the effectiveness of the compounds of the present invention, more detailed examinations were performed on the most representative compound (compound of the Example 4 abbreviated hereinafter as the compound 4). The compound 4 suspended in 1% CMC was orally administered in a dose of 50 mg/kg to the fasted and glucose-loaded rats according to the preceding screening test, and the blood glucose levels at 2, 4 and 6 hours after the administration were determined by the method of Momose.

[2] = tested on: blood glucose level in fasted and glucose-loaded rats; experiment: Relationships between doses and reducing activity of the compound 4; settings: for Blood glucose: ± SE
Procedure: (§3) The animals used for the pharmacological studies were male Sprague Dawley rats exept otherwise noted. 1. Hypoglycemic activity in non-diabetic rats (screening test)
as §2
The compound 4 and tolbutamide were orally administered to the fasted and glucose-loaded rats in various doses.

[3] = tested on: blood glucose level in alloxan diabetic rats; experiment: Hypoglycemic effect in alloxan diabetic rats; settings: for Hypoglycemic effect in alloxan diabetic rats (in words): oral
Procedure: as §1
(§4) Alloxan diabetic rats were obtained as follows. Namely, 2.5% fresh solution of alloxan (50mg/kg) was injected into the tail vein of male rats, and the rats were daily injected with insulin (1-4 units/day) from the 7th day after the administration of alloxan. The alloxan diabetic rats which were survived for more than 2 months with daily injection of insulin were used. The alloxan diabetic rats were fasted for 24 hours after the last treatment with insulin, and then the compound of the present invention was orally administered. The blood glucose levels were determined by the micro method of Momose before and 2, 4 and 6 hours after the administration.

[4] = tested on: blood glucose level in adrenalectomized rats; experiment: Hypoglycemic effect in adrenalectomized rats; settings: for Reduction % from control / Blood glucose: 2 hours; for Blood glucose: ± SE
Source text: as §1
The rats were adrenalectomized (both left and right adrenal glands) and were bred for 6-7 days by using 1% saline solution as for drinking water. The adrenalectomized rats were then fasted for 16-18 hours prior to the experiment. Glucose loading (100 mg/150g body weight) was performed by a subcutaneous administration of glucose solution on the back of the rats. Immediately after the glucose loading, the compound 4 suspended in 1% CMC was orally administered. Two hours after the oral administration, blood was obtained from the vena cava candalis of the rats under anesthesia with sodium pentobarbital. Blood glucose level was determined by the method of Momose.

[5] = tested on: serum FFA level in fasted rats; experiment: Time course of the serum FFA level in fasted rats (FIG. 1); settings: 50 mg/kg oral; 0.5, 1, 2, 4 and 6 hours
Procedure: as §1
Further experiment was performed to clarify the effectiveness of the compound 4 on the serum FFA. Blood samples were taken at 0.5, 1, 2, 4 and 6 hours after an oral administration of 50 mg/kg to the fasted rats and the serum FFA levels were determined.

[6] = tested on: blood glucose level in non-diabetic rats; experiment: Blood glucose level in non-diabetic rats, oral administration for 10 days
Procedure: as §1
(§5) The compound suspended in 1% CMC was orally administered once a day for 10 days to healthy rats weighing 140-160g. The rats were fasted for 16-18 hours prior to the last administration. Blood samples were taken at 90 minutes after the last administration, and the blood glucose and serum FFA levels were determined, respectively.

[7] = tested on: serum FFA level in non-diabetic rats; experiment: Serum FFA level in non-diabetic rats, oral administration for 10 days
Procedure: as §1, §5

[8] = tested on: serum FFA level in alloxan diabetic rats; experiment: Serum FFA level in alloxan diabetic rats, oral administration; settings: compound 4 at 12.5 and 100 mg/kg, 1.5 and 5 hours
Procedure: as §1, §4
The alloxan diabetic rats which were prepared and then preserved for 6 months with insulin as described in the previous experiment were used.

[9] = tested on: liver glycogen level in rats loaded with glucose; experiment: Liver glycogen level in rats loaded with glucose; settings: oral in 40% glucose solution; 3 hours
Procedure: as §3
The rats were fasted for 16 - 18 hours, and then the compound 4 suspended in 40% glucose solution was orally administered (5 ml/kg of the suspension per body weight). Glycogen content in the liver was determined at 3 hours after the administration.

[10] = tested on: blood glucose level in non-diabetic rats; experiment: Synergistic effect on the insulin activity in non-diabetic rats; settings: insulin 0.1 unit/kg s.c.; compound 4 25 mg/kg oral
Procedure: as §3
The blood glucose levels in the non-diabetic rats were respectively determined after a subcutaneous injection of insulin (0.1 unit/kg), after an oral administration of the compound 4 (25 mg/kg), and after simultaneous administrations of insulin and the compund 4.

Structure (SMILES): Cc1cc(C)n(C(=O)CNS(=O)(=O)c2ccc(Cl)cc2)n1 [Example 4, 1-(N-p-chlorobenzenesulfonyl-glycyl)-3,5-dimethylpyrazole]
- Blood glucose before administration [1]: 85.6 ± 3.2 mg%
- Durability of hypoglycemic effect ([1]; 50 mg/kg oral, 2, 4 and 6 hours): more durable than that of tolbutamide
- Blood glucose 2 hours ([1]; 50 mg/kg oral): 50.9 ± 1.2 mg%
- Blood glucose 4 hours ([1]; 50 mg/kg oral): 63.1 ± 3.0 mg%
- Blood glucose 6 hours ([1]; 50 mg/kg oral): 74.0 ± 1.6 mg%
- Reduction % from control ([2]; 0.56 mg/kg oral): 14.9%
- Blood glucose ([2]; 0.56 mg/kg oral): 77.5 ± 6.6 mg%
- Reduction % from control ([2]; 1.14 mg/kg oral): 19.4%
- Reduction of the blood glucose level (in words) ([2]; 1.14 mg/kg oral): significantly reduced the blood glucose level even at the dose of 1.14 mg/kg
- Blood glucose ([2]; 1.14 mg/kg oral): 73.4 ± 6.4 mg%
- Reduction % from control ([2]; 3.38 mg/kg oral): 20.6%
- Blood glucose ([2]; 3.38 mg/kg oral): 72.3 ± 4.1 mg%
- Reduction % from control ([2]; 6.75 mg/kg oral): 24.0%
- Blood glucose ([2]; 6.75 mg/kg oral): 69.2 ± 7.8 mg%
- Reduction % from control ([2]; 12.5 mg/kg oral): 34.8%
- Blood glucose ([2]; 12.5 mg/kg oral): 59.4 ± 4.0 mg%
- Reduction % from control ([2]; 25 mg/kg oral): 45.4%
- Blood glucose ([2]; 25 mg/kg oral): 49.7 ± 2.8 mg%
- Reduction % from control ([2]; 50 mg/kg oral): 40.5%
- Blood glucose ([2]; 50 mg/kg oral): 54.2 ± 2.9 mg%
- Blood glucose before administration ([3]; 100 mg/kg oral group, before administration (baseline), ± SE): 352.1 ± 31.6 mg%
- Blood glucose 2 hours ([3]; 100 mg/kg oral, 2 hours, ± SE): 267.6 ± 34.3 mg%
- Blood glucose 4 hours ([3]; 100 mg/kg oral, 4 hours, ± SE): 172.4 ± 35.1 mg%
- Blood glucose 6 hours ([3]; 100 mg/kg oral, 6 hours, ± SE): 97.8 ± 13.4 mg%
- Hypoglycemic effect in alloxan diabetic rats (in words) [3]: could be observed, and it lasted so longer than that of phenformin (phenethylbiguanide) as to be potent even at 6 hours after the administration
- Reduction of the blood glucose level (in words) ([4]; 0.125 mg/kg oral): significantly reduced the blood glucose level even at low dose of 0.125 mg/kg
- Reduction % from control ([4]; 0.125 mg/kg oral): 51.9%
- Blood glucose ([4]; 0.125 mg/kg oral): 37.9 ± 5.5 mg %
- Reduction % from control ([4]; 0.25 mg/kg oral): 70.4%
- Blood glucose ([4]; 0.25 mg/kg oral): 23.3 ± 4.0 mg %
- Reduction % from control ([4]; 0.50 mg/kg oral): 77.5%
- Blood glucose ([4]; 0.50 mg/kg oral): 17.8 ± 3.6 mg %
- Reduction % from control ([4]; 1.0 mg/kg oral): 83.6%
- Blood glucose ([4]; 1.0 mg/kg oral): 12.9 ± 1.4 mg %
- Reduction % from control ([4]; 2.0 mg/kg oral): 81.6%
- Blood glucose ([4]; 2.0 mg/kg oral): 14.5 ± 3.2 mg %
- Reduction % from control ([4]; 4.0 mg/kg oral): 81.6%
- Blood glucose ([4]; 4.0 mg/kg oral): 14.6 ± 2.9 mg %
- Effect on serum FFA level (in words, FIG. 1) [5]: markedly lowered the FFA level, and this effect could be observed at 6 hours after
- Blood glucose levels ([6]; 0.8 mg/kg oral once a day): 81.6 ± 4.8 mg/dL
- Blood glucose levels ([6]; 3.1 mg/kg oral once a day): 74.4 ± 6.6 mg/dL
- Blood glucose levels ([6]; 12.5 mg/kg oral once a day): 74.8 ± 3.9 mg/dL
- Blood glucose levels ([6]; 50.0 mg/kg oral once a day): 69.9 ± 6.7 mg/dL
- Serum FFA levels ([7]; 0.8 mg/kg oral once a day): 46.8 ± 5.1 μ Eq/dl
- Effect on serum FFA level (in words) ([7]; 0.8 mg/kg/day oral): significantly lowered the serum FFA level even at a low dose (0.8mg/kg/day)
- Serum FFA levels ([7]; 3.1 mg/kg oral once a day): 35.9 ± 2.9 μ Eq/dl
- Serum FFA levels ([7]; 12.5 mg/kg oral once a day): 27.1 ± 1.5 μ Eq/dl
- Serum FFA levels ([7]; 50.0 mg/kg oral once a day): 27.9 ± 1.5 μ Eq/dl
- Effect on serum FFA level in alloxan diabetic rats (in words) [8]: drastically decreased within 1.5 hours, and it was still more lowered even at 5 hours later
- Effect on the liver glycogen level [9]: significantly reduced the liver glycogen level (p<0.001)
- Effect of combined use with insulin on blood glucose level [10]: more effective to reduce the blood glucose level than the individual administration

Structure (SMILES): CCCCNC(=O)NS(=O)(=O)c1ccc(C)cc1 [Tolbutamide, reference compound]
- Blood glucose before administration [1]: 86.2 ± 2.1 mg%
- Blood glucose 2 hours ([1]; 50 mg/kg oral): 44.7 ± 5.0 mg%
- Blood glucose 4 hours ([1]; 50 mg/kg oral): 60.4 ± 5.4 mg%
- Blood glucose 6 hours ([1]; 50 mg/kg oral): 80.7 ± 5.4 mg%
- Reduction % from control ([2]; 6.75 mg/kg oral): 3.8%
- Blood glucose ([2]; 6.75 mg/kg oral): 87.6 ± 6.5 mg%
- Reduction % from control ([2]; 12.5 mg/kg oral): -1.4%
- Blood glucose ([2]; 12.5 mg/kg oral): 92.4 ± 3.5 mg%
- Reduction % from control ([2]; 25 mg/kg oral): 19.3%
- Blood glucose ([2]; 25 mg/kg oral): 73.5 ± 5.0 mg%
- Reduction % from control ([2]; 50 mg/kg oral): 48.0%
- Blood glucose ([2]; 50 mg/kg oral): 47.4 ± 3.4 mg%
- Potency at low doses (in words) ([2]; low doses, oral): not potent at low doses
- Hypoglycemic effect in alloxan diabetic rats (in words) [3]: could not exert its hypoglycemic effect in the alloxan diabetic rats
- Reduction % from control ([4]; 15 mg/kg oral): 42.0%
- Blood glucose ([4]; 15 mg/kg oral): 45.7 ± 7.3 mg %
- Reduction % from control ([4]; 30 mg/kg oral): 79.2%
- Blood glucose ([4]; 30 mg/kg oral): 16.4 ± 2.1 mg %
- Reduction % from control ([4]; 60 mg/kg oral): 87.9%
- Blood glucose ([4]; 60 mg/kg oral): 9.5 ± 0.6 mg %
- Effect on serum FFA level (in words, FIG. 1) [5]: only a slight suppression
- Blood glucose levels ([6]; 50.0 mg/kg oral once a day): 33.6 ± 6.3 mg/dL
- Serum FFA levels ([7]; 50.0 mg/kg oral once a day): 45.1 ± 2.7 μ Eq/dl
- Effect on serum FFA level in alloxan diabetic rats (in words) [8]: no suppressive effect on the serum FFA level
- Effect on the liver glycogen level [9]: neither tolbutamide or pnenformin exerted such effect
- Effect of combined use with insulin on blood glucose level [10]: not more effective than the administration of tolbutamide alone
